Laboratory results as given in ChEMBL document CHEMBL1132568, “Synthesis, pharmacological evaluation, and structure-activity relationship and quantitative structure-activity relationship studies on novel derivatives of 2,4-diamino-6,7-dimethoxyquinazoline alpha1-adrenoceptor antagonists” (J Med Chem, 1999).

These compounds were tested against T1, 5-hydroxytryptamine receptor 1A (Rattus norvegicus, UniProt P19327) (assay: Inhibition concentration against 5-hydroxytryptamine 1A receptor).
T1 sequence (P19327 whole entry): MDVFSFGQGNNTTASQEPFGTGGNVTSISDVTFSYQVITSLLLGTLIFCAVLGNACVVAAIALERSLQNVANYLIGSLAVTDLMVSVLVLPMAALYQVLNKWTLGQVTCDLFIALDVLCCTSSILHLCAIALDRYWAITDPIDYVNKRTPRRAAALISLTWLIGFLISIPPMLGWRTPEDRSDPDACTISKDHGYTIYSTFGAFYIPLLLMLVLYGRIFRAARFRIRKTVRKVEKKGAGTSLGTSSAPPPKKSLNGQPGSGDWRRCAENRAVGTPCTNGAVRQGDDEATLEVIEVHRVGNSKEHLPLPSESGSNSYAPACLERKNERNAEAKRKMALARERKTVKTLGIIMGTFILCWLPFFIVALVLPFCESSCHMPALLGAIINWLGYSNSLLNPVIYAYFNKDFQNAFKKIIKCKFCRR

Compound	IC50
COc1cc2nc(N3CCN(C(=O)COc4ccccc4OC)CC3)nc(N)c2cc1OC	170 nM

Each compound was assayed against T1, 5-hydroxytryptamine receptor 1A (assay: Inhibitory concentration against 5-hydroxytryptamine 1A receptor (Inactive at >1000 nM concentration)).

Compound	IC50
COc1cc2nc(N3CCN(C(=O)CC(c4ccccc4)c4ccccc4)CC3)nc(N)c2cc1OC	> 1000 nM

What follows are compounds tested against 5-hydroxytryptamine receptor 2A (Rattus norvegicus, UniProt P14842) (assay: Inhibitory concentration against 5-hydroxytryptamine 2A receptor (Inactive at >1000 nM concentration)).
5-hydroxytryptamine receptor 2A, sequence (P14842 whole entry): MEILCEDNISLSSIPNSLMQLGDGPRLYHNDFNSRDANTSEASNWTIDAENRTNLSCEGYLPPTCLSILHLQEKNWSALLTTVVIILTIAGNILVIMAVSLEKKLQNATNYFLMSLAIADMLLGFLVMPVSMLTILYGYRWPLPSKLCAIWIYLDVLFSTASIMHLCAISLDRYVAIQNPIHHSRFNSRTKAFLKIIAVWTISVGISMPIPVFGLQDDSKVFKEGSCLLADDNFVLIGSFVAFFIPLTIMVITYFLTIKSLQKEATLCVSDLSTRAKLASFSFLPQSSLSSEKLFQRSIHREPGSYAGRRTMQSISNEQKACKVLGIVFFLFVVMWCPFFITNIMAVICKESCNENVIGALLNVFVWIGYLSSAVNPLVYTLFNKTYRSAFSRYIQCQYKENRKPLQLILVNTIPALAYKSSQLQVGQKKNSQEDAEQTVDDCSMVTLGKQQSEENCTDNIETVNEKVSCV

Compound	IC50
COc1cc2nc(N3CCN(C(=O)CC(c4ccccc4)c4ccccc4)CC3)nc(N)c2cc1OC	> 1000 nM
COc1cc2nc(N3CCN(C(=O)COc4ccccc4OC)CC3)nc(N)c2cc1OC	> 1000 nM

Each compound was assayed against T2, Adrenergic receptor alpha-1 (Rattus norvegicus, UniProt P15823+P23944+P43140) (assay: Inhibition of Alpha-1 adrenergic receptor in rat cortex membrane).
T2 sequence (P15823 whole entry): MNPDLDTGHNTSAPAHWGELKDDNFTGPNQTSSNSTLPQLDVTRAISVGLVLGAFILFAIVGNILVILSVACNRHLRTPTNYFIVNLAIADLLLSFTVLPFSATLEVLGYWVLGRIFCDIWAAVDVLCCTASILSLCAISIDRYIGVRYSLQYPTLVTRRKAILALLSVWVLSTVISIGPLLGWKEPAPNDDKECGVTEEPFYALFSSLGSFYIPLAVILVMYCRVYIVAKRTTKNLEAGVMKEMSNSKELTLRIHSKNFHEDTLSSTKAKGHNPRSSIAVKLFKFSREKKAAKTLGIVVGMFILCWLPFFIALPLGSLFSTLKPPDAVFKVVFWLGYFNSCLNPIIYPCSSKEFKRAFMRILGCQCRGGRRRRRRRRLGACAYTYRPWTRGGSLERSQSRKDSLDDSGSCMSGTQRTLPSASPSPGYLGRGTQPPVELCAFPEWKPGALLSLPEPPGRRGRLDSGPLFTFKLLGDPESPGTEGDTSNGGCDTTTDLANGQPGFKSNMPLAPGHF
T2 sequence (P23944 whole entry): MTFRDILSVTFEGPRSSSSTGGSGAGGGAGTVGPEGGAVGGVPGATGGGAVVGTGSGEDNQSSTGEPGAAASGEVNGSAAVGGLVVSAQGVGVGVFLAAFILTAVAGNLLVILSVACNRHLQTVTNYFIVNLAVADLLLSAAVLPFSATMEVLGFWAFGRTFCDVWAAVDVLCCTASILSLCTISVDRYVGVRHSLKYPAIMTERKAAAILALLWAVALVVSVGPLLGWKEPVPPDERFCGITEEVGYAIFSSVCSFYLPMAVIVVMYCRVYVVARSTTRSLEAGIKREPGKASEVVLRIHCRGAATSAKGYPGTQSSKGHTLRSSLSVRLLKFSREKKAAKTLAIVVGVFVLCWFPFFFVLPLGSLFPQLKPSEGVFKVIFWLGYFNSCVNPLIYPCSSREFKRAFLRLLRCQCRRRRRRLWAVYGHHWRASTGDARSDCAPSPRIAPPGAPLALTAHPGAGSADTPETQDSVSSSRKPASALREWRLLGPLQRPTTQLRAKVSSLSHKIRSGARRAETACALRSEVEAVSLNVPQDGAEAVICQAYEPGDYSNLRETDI
T2 sequence (P43140 whole entry): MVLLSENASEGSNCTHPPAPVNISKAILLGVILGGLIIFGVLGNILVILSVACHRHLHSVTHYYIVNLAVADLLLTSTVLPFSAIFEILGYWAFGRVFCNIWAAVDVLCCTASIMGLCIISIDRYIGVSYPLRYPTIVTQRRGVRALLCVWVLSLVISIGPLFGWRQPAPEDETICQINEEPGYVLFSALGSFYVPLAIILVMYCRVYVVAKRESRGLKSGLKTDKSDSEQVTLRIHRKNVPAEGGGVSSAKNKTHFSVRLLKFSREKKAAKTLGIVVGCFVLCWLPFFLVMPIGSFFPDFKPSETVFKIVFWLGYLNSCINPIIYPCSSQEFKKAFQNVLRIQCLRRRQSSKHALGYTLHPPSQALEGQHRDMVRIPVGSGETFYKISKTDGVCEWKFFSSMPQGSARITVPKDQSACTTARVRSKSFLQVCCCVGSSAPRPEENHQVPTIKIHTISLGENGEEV
Format: cell membranes

Compound	IC50
COc1cc2nc(N3CCN(C(=O)CC(c4ccccc4)c4ccccc4)CC3)nc(N)c2cc1OC	1.4 nM

Each compound was assayed against T3, Adrenergic receptor alpha-2 (Rattus norvegicus, UniProt P22086+P19328+P22909) (assay: Inhibitory concentration against Alpha-2 adrenergic receptor).
T3 sequence (P22086 whole entry): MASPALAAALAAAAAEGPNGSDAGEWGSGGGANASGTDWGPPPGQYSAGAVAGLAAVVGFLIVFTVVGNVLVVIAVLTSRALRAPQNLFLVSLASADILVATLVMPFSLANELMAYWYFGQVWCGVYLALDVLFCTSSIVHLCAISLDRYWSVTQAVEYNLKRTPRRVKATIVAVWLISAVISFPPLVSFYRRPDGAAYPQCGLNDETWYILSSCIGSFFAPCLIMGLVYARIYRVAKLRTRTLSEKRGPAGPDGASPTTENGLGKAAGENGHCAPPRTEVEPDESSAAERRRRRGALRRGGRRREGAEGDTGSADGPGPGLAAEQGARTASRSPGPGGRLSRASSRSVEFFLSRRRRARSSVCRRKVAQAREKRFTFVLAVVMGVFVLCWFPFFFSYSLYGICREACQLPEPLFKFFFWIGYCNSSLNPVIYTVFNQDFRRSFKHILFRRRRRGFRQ
T3 sequence (P19328 whole entry): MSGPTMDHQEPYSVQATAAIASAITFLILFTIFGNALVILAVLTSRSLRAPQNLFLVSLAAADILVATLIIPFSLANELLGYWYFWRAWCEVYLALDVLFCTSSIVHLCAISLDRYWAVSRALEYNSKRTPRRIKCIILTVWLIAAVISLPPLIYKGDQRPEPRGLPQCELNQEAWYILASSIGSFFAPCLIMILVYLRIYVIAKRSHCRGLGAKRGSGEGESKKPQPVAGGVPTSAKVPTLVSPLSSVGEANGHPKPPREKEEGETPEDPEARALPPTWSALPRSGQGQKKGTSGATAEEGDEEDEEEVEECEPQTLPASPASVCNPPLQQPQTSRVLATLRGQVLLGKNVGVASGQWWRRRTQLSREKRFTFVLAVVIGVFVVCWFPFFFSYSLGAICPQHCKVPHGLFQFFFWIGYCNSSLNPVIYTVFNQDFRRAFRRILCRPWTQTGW
T3 sequence (P22909 whole entry): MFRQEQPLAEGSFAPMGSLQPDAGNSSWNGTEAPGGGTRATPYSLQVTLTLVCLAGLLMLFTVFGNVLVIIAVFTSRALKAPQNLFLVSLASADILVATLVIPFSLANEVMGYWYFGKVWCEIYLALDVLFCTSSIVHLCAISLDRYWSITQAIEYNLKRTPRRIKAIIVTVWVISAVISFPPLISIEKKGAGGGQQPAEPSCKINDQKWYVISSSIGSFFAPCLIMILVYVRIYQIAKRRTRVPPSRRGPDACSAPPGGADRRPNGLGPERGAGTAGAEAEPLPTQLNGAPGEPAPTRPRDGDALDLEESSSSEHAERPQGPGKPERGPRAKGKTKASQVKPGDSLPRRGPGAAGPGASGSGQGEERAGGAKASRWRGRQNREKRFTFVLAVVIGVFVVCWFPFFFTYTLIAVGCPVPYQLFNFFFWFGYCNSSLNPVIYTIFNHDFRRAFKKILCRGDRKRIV
Format: protein assay

Compound	IC50
COc1cc2nc(N3CCN(C(=O)CC(c4ccccc4)c4ccccc4)CC3)nc(N)c2cc1OC	> 1000 nM
COc1cc2nc(N3CCN(C(=O)COc4ccccc4OC)CC3)nc(N)c2cc1OC	> 1000 nM

The compounds below were run against T4, Alpha-1A adrenergic receptor (Rattus norvegicus, UniProt P43140) (assay: The binding affinity towards Alpha-1A adrenergic receptor in the COS cell line.).
T4 sequence (P43140 whole entry): T2 sequence (P43140 whole entry)
Format: cell-based

Compound	Ki
COc1cc2nc(N3CCN(C(=O)CC(c4ccccc4)c4ccccc4)CC3)nc(N)c2cc1OC	1.48 nM

These compounds were tested on Canis familiaris (assay: In vivo hypotensive effect(DBP) in dog after intravenous administration.).
Format: functional, Canis lupus familiaris

Compound	ED25
COc1cc2nc(N3CCN(C(=O)CC(c4ccccc4)c4ccccc4)CC3)nc(N)c2cc1OC	0.023 mg/kg

These compounds were tested on Canis familiaris (assay: In vivo effect on urethral contractility (UP) of dog after intravenous administration.).
Format: functional, Canis lupus familiaris, Urethra

Compound	ED50
COc1cc2nc(N3CCN(C(=O)CC(c4ccccc4)c4ccccc4)CC3)nc(N)c2cc1OC	0.031 mg/kg

Each compound was assayed against D(2) dopamine receptor (Rattus norvegicus, UniProt P61169) (assay: Inhibitory concentration against Dopamine receptor D2 (Inactive at >1000 nM concentration)).
D(2) dopamine receptor, sequence (P61169 whole entry): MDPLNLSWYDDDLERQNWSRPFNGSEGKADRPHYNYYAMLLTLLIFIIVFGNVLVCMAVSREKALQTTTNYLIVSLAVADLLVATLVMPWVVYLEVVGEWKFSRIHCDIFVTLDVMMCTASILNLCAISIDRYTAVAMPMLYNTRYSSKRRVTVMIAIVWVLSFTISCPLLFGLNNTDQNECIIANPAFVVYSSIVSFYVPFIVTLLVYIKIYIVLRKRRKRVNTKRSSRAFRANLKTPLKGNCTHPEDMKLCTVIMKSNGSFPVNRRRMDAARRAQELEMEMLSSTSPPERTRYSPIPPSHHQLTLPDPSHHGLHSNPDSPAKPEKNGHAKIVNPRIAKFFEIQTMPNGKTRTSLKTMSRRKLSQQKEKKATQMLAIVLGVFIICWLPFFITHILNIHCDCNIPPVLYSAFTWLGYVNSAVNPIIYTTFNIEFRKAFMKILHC

Compound	IC50
COc1cc2nc(N3CCN(C(=O)CC(c4ccccc4)c4ccccc4)CC3)nc(N)c2cc1OC	> 1000 nM
COc1cc2nc(N3CCN(C(=O)COc4ccccc4OC)CC3)nc(N)c2cc1OC	> 1000 nM
